Assay results as given in the supplement of paper PMC10307832.

Experiments:
Experiment in all cases: relative viability (nuclei count vs DMSO), 5 days (fraction); higher = more cells survive
A-427 = system: A-427
How it was run: (§1)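 Relative viability is defined as nuclei in treated wells over nuclei in vehicle wells. Duplicate plates were run and medians reported. Lung cancer cell lines in 1536-well plates were dosed by pin tool one day after seeding, with one drug or with a fixed anchor-drug dose plus five library-drug doses (not always all listed) in √10 steps, and nuclei were counted after 5 days.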

HCC-15 = system: HCC-15
How it was run: as §1

HCC-78 = system: HCC-78
How it was run: as §1

HOP-62 = system: HOP-62
How it was run: as §1

LC-2-ad = system: LC-2-ad
How it was run: as §1

LXF-289 = system: LXF-289
How it was run: as §1

NCI-H1734 = system: NCI-H1734
How it was run: as §1

NCI-H1755 = system: NCI-H1755
How it was run: as §1

NCI-H1792 = system: NCI-H1792
How it was run: as §1

NCI-H1915 = system: NCI-H1915
How it was run: as §1

NCI-H1975 = system: NCI-H1975
How it was run: as §1

NCI-H2126 = system: NCI-H2126
How it was run: as §1

NCI-H2228 = system: NCI-H2228
How it was run: as §1

NCI-H2342 = system: NCI-H2342
How it was run: as §1

NCI-H2347 = system: NCI-H2347
How it was run: as §1

NCI-H358 = system: NCI-H358
How it was run: as §1

NCI-H522 = system: NCI-H522
How it was run: as §1

NCI-H647 = system: NCI-H647
How it was run: as §1

PC-3 [JPC-3] = system: PC-3 [JPC-3]
How it was run: as §1

RERF-LC-KJ = system: RERF-LC-KJ
How it was run: as §1

SK-LU-1 = system: SK-LU-1
How it was run: as §1

SW 1573 = system: SW 1573
How it was run: as §1

## Nc1ccn([C@@H]2O[C@H](CO)[C@@H](O)[C@@H]2O)c(=O)n1 [Cytarabine] + O=C(c1cc(Cc2n[nH]c(=O)c3ccccc23)ccc1F)N1CCN(C(=O)C2CC2)CC1 [Olaparib] (partner 8 µM)
A-427; first compound 0.005 µM
  relative viability: 0.479
A-427; first compound 0.01581 µM
  relative viability: 0.551
A-427; first compound 0.05 µM
  relative viability: 0.304
A-427; first compound 0.1581 µM
  relative viability: 0.223
A-427; first compound 0.5 µM
  relative viability: 0.253
HCC-15; first compound 0.005 µM
  relative viability: 0.706
HCC-15; first compound 0.01581 µM
  relative viability: 0.655
HCC-15; first compound 0.05 µM
  relative viability: 0.841
HCC-15; first compound 0.1581 µM
  relative viability: 0.649
HCC-15; first compound 0.5 µM
  relative viability: 0.539
HCC-78; first compound 0.005 µM
  relative viability: 0.906
HCC-78; first compound 0.01581 µM
  relative viability: 0.849
HCC-78; first compound 0.05 µM
  relative viability: 0.583
HCC-78; first compound 0.1581 µM
  relative viability: 0.419
HCC-78; first compound 0.5 µM
  relative viability: 0.278
HOP-62; first compound 0.005 µM
  relative viability: 0.436
HOP-62; first compound 0.01581 µM
  relative viability: 0.338
HOP-62; first compound 0.05 µM
  relative viability: 0.253
HOP-62; first compound 0.1581 µM
  relative viability: 0.13
HOP-62; first compound 0.5 µM
  relative viability: 0.0414
LC-2-ad; first compound 0.005 µM
  relative viability: 0.697
LC-2-ad; first compound 0.01581 µM
  relative viability: 0.617
LC-2-ad; first compound 0.05 µM
  relative viability: 0.65
LC-2-ad; first compound 0.1581 µM
  relative viability: 0.58
LC-2-ad; first compound 0.5 µM
  relative viability: 0.474
LXF-289; first compound 0.005 µM
  relative viability: 0.904
LXF-289; first compound 0.01581 µM
  relative viability: 0.829
LXF-289; first compound 0.05 µM
  relative viability: 0.709
LXF-289; first compound 0.1581 µM
  relative viability: 0.285
LXF-289; first compound 0.5 µM
  relative viability: 0.232
NCI-H1734; first compound 0.005 µM
  relative viability: 0.4
NCI-H1734; first compound 0.01581 µM
  relative viability: 0.243
NCI-H1734; first compound 0.05 µM
  relative viability: 0.183
NCI-H1734; first compound 0.1581 µM
  relative viability: 0.108
NCI-H1734; first compound 0.5 µM
  relative viability: 0.122
NCI-H1755; first compound 0.005 µM
  relative viability: 0.893
NCI-H1755; first compound 0.01581 µM
  relative viability: 0.889
NCI-H1755; first compound 0.05 µM
  relative viability: 0.584
NCI-H1755; first compound 0.1581 µM
  relative viability: 0.398
NCI-H1755; first compound 0.5 µM
  relative viability: 0.342
NCI-H1792; first compound 0.01581 µM
  relative viability: 0.399
NCI-H1792; first compound 0.05 µM
  relative viability: 0.248
NCI-H1792; first compound 0.1581 µM
  relative viability: 0.167
NCI-H1792; first compound 0.5 µM
  relative viability: 0.0776
NCI-H1915; first compound 0.005 µM
  relative viability: 0.288
NCI-H1915; first compound 0.01581 µM
  relative viability: 0.253
NCI-H1915; first compound 0.05 µM
  relative viability: 0.261
NCI-H1915; first compound 0.1581 µM
  relative viability: 0.24
NCI-H1915; first compound 0.5 µM
  relative viability: 0.212
NCI-H1975; first compound 0.005 µM
  relative viability: 0.671
NCI-H1975; first compound 0.01581 µM
  relative viability: 0.871
NCI-H1975; first compound 0.05 µM
  relative viability: 0.561
NCI-H1975; first compound 0.1581 µM
  relative viability: 0.429
NCI-H1975; first compound 0.5 µM
  relative viability: 0.253
NCI-H2126; first compound 0.005 µM
  relative viability: 0.923
NCI-H2126; first compound 0.01581 µM
  relative viability: 0.907
NCI-H2126; first compound 0.05 µM
  relative viability: 0.673
NCI-H2126; first compound 0.1581 µM
  relative viability: 0.534
NCI-H2126; first compound 0.5 µM
  relative viability: 0.515
NCI-H2228; first compound 0.005 µM
  relative viability: 0.379
NCI-H2228; first compound 0.01581 µM
  relative viability: 0.203
NCI-H2228; first compound 0.05 µM
  relative viability: 0.19
NCI-H2228; first compound 0.1581 µM
  relative viability: 0.13
NCI-H2228; first compound 0.5 µM
  relative viability: 0.129
NCI-H2342; first compound 0.005 µM
  relative viability: 0.477
NCI-H2342; first compound 0.01581 µM
  relative viability: 0.477
NCI-H2342; first compound 0.05 µM
  relative viability: 0.468
NCI-H2342; first compound 0.1581 µM
  relative viability: 0.389
NCI-H2342; first compound 0.5 µM
  relative viability: 0.31
NCI-H2347; first compound 0.005 µM
  relative viability: 0.59
NCI-H2347; first compound 0.01581 µM
  relative viability: 0.569
NCI-H2347; first compound 0.05 µM
  relative viability: 0.522
NCI-H2347; first compound 0.1581 µM
  relative viability: 0.538
NCI-H2347; first compound 0.5 µM
  relative viability: 0.493
NCI-H358; first compound 0.005 µM
  relative viability: 0.443
NCI-H358; first compound 0.01581 µM
  relative viability: 0.491
NCI-H358; first compound 0.05 µM
  relative viability: 0.379
NCI-H358; first compound 0.1581 µM
  relative viability: 0.145
NCI-H358; first compound 0.5 µM
  relative viability: 0.115
NCI-H522; first compound 0.005 µM
  relative viability: 0.654
NCI-H522; first compound 0.01581 µM
  relative viability: 0.602
NCI-H522; first compound 0.05 µM
  relative viability: 0.813
NCI-H522; first compound 0.1581 µM
  relative viability: 0.545
NCI-H522; first compound 0.5 µM
  relative viability: 0.426
NCI-H647; first compound 0.005 µM
  relative viability: 0.285
NCI-H647; first compound 0.01581 µM
  relative viability: 0.22
NCI-H647; first compound 0.05 µM
  relative viability: 0.174
NCI-H647; first compound 0.1581 µM
  relative viability: 0.0623
NCI-H647; first compound 0.5 µM
  relative viability: 0.0624
PC-3 [JPC-3]; first compound 0.005 µM
  relative viability: 0.508
PC-3 [JPC-3]; first compound 0.01581 µM
  relative viability: 1.09
PC-3 [JPC-3]; first compound 0.05 µM
  relative viability: 0.971
PC-3 [JPC-3]; first compound 0.1581 µM
  relative viability: 0.682
PC-3 [JPC-3]; first compound 0.5 µM
  relative viability: 0.617
RERF-LC-KJ; first compound 0.005 µM
  relative viability: 0.886
RERF-LC-KJ; first compound 0.01581 µM
  relative viability: 0.806
RERF-LC-KJ; first compound 0.05 µM
  relative viability: 0.655
RERF-LC-KJ; first compound 0.1581 µM
  relative viability: 0.459
RERF-LC-KJ; first compound 0.5 µM
  relative viability: 0.277
SK-LU-1; first compound 0.005 µM
  relative viability: 0.472
SK-LU-1; first compound 0.01581 µM
  relative viability: 0.392
SK-LU-1; first compound 0.05 µM
  relative viability: 0.32
SK-LU-1; first compound 0.1581 µM
  relative viability: 0.284
SK-LU-1; first compound 0.5 µM
  relative viability: 0.235
SW 1573; first compound 0.005 µM
  relative viability: 0.513
SW 1573; first compound 0.01581 µM
  relative viability: 0.329
SW 1573; first compound 0.05 µM
  relative viability: 0.384
SW 1573; first compound 0.1581 µM
  relative viability: 0.166
SW 1573; first compound 0.5 µM
  relative viability: 0.108
